Patent US6229016A, “Method for treating tumors using 2-aryl-naphthyridin-4-ones” (priority 2000, dated 2001)

What was measured:
Type in all cases: cell-based
[1] = tested on: HL-60(TB) leukemia cell line; assay: cells; details: Homo sapiens; HL-60(TB); read-out: Cytotoxicity log GI50 (converted)
[2] = tested on: MDA-MB-435 breast cancer cell line; assay: NCI in vitro screen, breast cancer MDA-MB-435; details: Homo sapiens, read-out: Cytotoxicity log GI50 (converted)
[3] = tested on: NCI-H460 non-small cell lung cancer cell line; assay: NCI in vitro screen, non-small cell lung cancer NCI-H460; details: Homo sapiens, read-out: Cytotoxicity log GI50 (converted)
[4] = tested on: 786-0 renal cancer cell line; assay: NCI in vitro screen, renal cancer 786-0; details: Homo sapiens, read-out: Cytotoxicity log GI50 (converted)
Excerpt: (§1) Compounds 41-51 and 53-68 were submitted to NCI and assayed in the NCI's in vitro disease-oriented antitumor screen, which involves determination of a test compound's effects on the growth of approximately 60 human tumor cell lines. See, M. R. Boyd, et al. In Cancer: Principles and Practice of Oncology Updates; De Vita, V. T., Hellman, S., Rosenberg, S. A., Eds; J. B. Lippincoft: Philadelphia, pp 1-12 (1989); and A. Monks, et al. J. Natl. Cancer Inst. 83:757 (1991). These lines include leukemia, non-small cell lung, colon, central nervous system (CNS), melanoma, ovarian, renal, prostate, and breast cancers.
(§2) Compounds 29'-51' were submitted to NCI and assayed in the NCI's in vitro disease-oriented antitumor screen, using the techniques described in Example 5. This assay involves determinations of a test agent's effect on growth parameters against a panel of approximately 60 human tumor cell lines, derived largely from solid tumors, including non-small cell lung, colon, central nervous system, renal, ovarian, prostate, and breast cancers, plus a few leukemia cell lines. The cytotoxic effects of each compound are obtained as GI50 or […] values, which represent the molar drug concentrations required to cause half growth inhibition and total growth inhibition, respectively. The results are expressed for each cell line as average log GI50 values in Table 4, as log GI50 values in Table 5, and as log TGI values and average log TGI values in Table 6.

[5] = tested on: OVCAR-3 ovarian cancer cell line; assay: NCI in vitro screen, ovarian cancer OVCAR-3; details: Homo sapiens, read-out: Cytotoxicity log GI50 (converted)
[6] = tested on: U-251 CNS cancer cell line; assay: NCI in vitro screen, CNS cancer U-251; details: Homo sapiens, read-out: Cytotoxicity log GI50 (converted)
[7] = tested on: PC-3 prostate cancer cell line; assay: NCI in vitro screen, prostate cancer PC-3; details: Homo sapiens, read-out: Cytotoxicity log GI50 (converted)
Excerpt: as §1, §2

[8] = tested on: MDA-N breast cancer cell line; assay: NCI in vitro screen, breast cancer MDA-N; details: Homo sapiens, read-out: Cytotoxicity log GI50 (converted)
Excerpt: as §1, §2

[9] = tested on: SF-295 CNS cancer cell line; assay: NCI in vitro screen, CNS cancer SF-295; details: Homo sapiens, read-out: Cytotoxicity log GI50 (converted)
[10] = tested on: HCT-116 colon cancer cell line; assay: NCI in vitro screen, colon cancer HCT-116; details: Homo sapiens; HCT-1.16 (head); HCT-116 (footnote); read-out: Cytotoxicity log GI50 (converted)
[11] = tested on: SK-MEL-5 melanoma cell line; assay: NCI in vitro screen, melanoma SK-MEL-5; details: Homo sapiens, read-out: Cytotoxicity log GI50 (converted)
Excerpt: as §1, §2

[12] = tested on: NCI's 60 human tumor cell line; assay: NCI 60 human tumor cell line in vitro screen (average / whole panel); details: calculated from all cell lines tested, molar concentrations, read-out: average log GI50 (converted)

SMILES	GI50 [1] [nM]	GI50 [2] [nM]	GI50 [3] [nM]	GI50 [4] [nM]	GI50 [5] [nM]	GI50 [6] [nM]	GI50 [7] [nM]	GI50 [8] [nM]	GI50 [9] [nM]	GI50 [10] [nM]	GI50 [11] [nM]	GI50 [12] [nM]
Cc1ccnc2c1C(=O)CC(c1cccc3ccccc13)=N2 [Compound 43, 2-(α-Naphthyl)-5-methyl-1,8-naphthyridin-4-one]	< 10	< 10	< 10	12	< 10	< 10	20	< 10	10.7	< 10	< 10	35.5
Cc1ccc2c(=O)cc(-c3cccc(Cl)c3)[nH]c2n1 [35']	28.8	< 10	41.7	41.7	< 10	64.6	> 100000	> 100000	22.9	25.7	31.6	170
Cc1ccnc2c1C(=O)CC(c1ccc3ccccc3c1)=N2 [Compound 48, 2-(β-Naphthyl)-5-methyl-1,8-naphthyridin-4-one]	204	204	1120	2400	1290	646	1380	204	1480	427	437	1200
Cc1ccc2c(n1)N=C(c1cccc3ccccc13)CC2=O [Compound 45, 2-(α-Naphthyl)-7-methyl-1,8-naphthyridin-4-one]	< 10	< 10	17.4	6030	< 10	15.5	30.2	< 10	24	< 10	13.8	66.1
COc1ccc(-c2cc(=O)c3c(C)ccnc3[nH]2)cc1 [Compound 52]	4370	2400	6170	25100	13800	6310	18200	2090	19500	6460	3890	12900
Cc1ccc2c(=O)cc(-c3cccc(F)c3)[nH]c2n1 [30']	22.4	12.3	33.1	45.7	19.5	38	34.7	14.5	28.8	28.2	22.4	42.7
COc1cccc(-c2cc(=O)c3c(C)ccnc3[nH]2)c1 [Compound 45]	12.9	< 10	47.9	51.3	25.7	58.9	26.3	< 10	28.8	44.7	22.4	58.9
COc1cccc(-c2cc(=O)c3c(C)cc(C)nc3[nH]2)c1 [Compound 48]	174	< 10	447	437	251	170	309	< 10	417	407	288	646
Cc1cccc(C2=Nc3nc(C)ccc3C(=O)C2)c1 [Compound 40, 2-(3'-Methylphenyl)-7-methyl-1,8-naphthyridin-4-one]	26.9	32.4	17.8	427	490	200	138	31.6	60.3	120	126	97.7
COc1ccccc1-c1cc(=O)c2cc(C)cnc2[nH]1 [Compound 41]	9550	3020	32400	41700	19500	27500	26900	4470	30900	42700	20400	31600
Cc1cc(C)c2c(=O)cc(-c3cccc(F)c3)[nH]c2n1 [31']	37.2	< 10	53.7	35.5	18.2	64.6	61.7	12.9	33.1	< 10	37.2	85.1
COc1ccccc1-c1cc(=O)c2c(C)ccnc2[nH]1 [Compound 40]	20900	6460	24000	60300	12900	35500	20900	8320	23400	7590	22400	2820
Cc1cccc(-c2cc(=O)c3cccnc3[nH]2)c1 [37']	19.1	< 10	25.7	37.2	41.7	44.7	42.7	< 10	37.2	22.4	25.7	95.5
O=C1CC(c2ccc3ccccc3c2)=Nc2ncccc21 [Compound 47, 2-(β-Naphthyl)-1,8-naphthyridin-4-one]	1820	1780	3800	5620	8320	4370	10500	1660	9120	3800	3470	8130
Cc1cc(C)c2c(=O)cc(-c3cccc(Cl)c3)[nH]c2n1 [36']	74.1	13.2	224	204	170	295	27.5	19.1	47.9	170	117	347
Cc1cnc2[nH]c(-c3cccc(Cl)c3)cc(=O)c2c1 [34']	30.9	< 10	50.1	42.7	22.4	69.2	> 100000	> 100000	25.1	30.2	70.8	269
Cc1cnc2c(c1)C(=O)CC(c1ccc3ccccc3c1)=N2 [Compound 49, 2-(β-Naphthyl)-6-methyl-1,8-naphthyridin-4-one]	141	105	398	617	355	468	407	132	550	468	363	741
Cc1cnc2c(c1)C(=O)CC(c1cccc3ccccc13)=N2 [Compound 44, 2-(α-Naphthyl)-6-methyl-1,8-naphthyridin-4-one]	< 10	< 10	< 10	< 10	< 10	< 10	< 10	< 10	< 10	< 10	< 10	19.1
Cc1cc(C)c2c(=O)cc(-c3ccc4ccccc4c3)[nH]c2n1 [Compound 51, 2-(β-Naphthyl)-5,7-methyl-1,8-naphthyridin-4-one]	3470	2950	13200	51300	20000	15800	5500	3240	14800	12600	2190	13500
Cc1ccc2c(n1)N=C(c1ccc3ccccc3c1)CC2=O [Compound 50, 2-(β-Naphthyl)-7-methyl-1,8-naphthyridin-4-one]	1780	1580	3800	5370	3630	4570	2630	1950	3800	3980	3310	4570
